Active and inactive are the calls of the source. The rule behind the calls is not given here.
System: CCRIS mutagenicity, Ames/micronucleus/aberration tests
Experiment: CCRIS mutagenicity studies
[1] = Test System: AMES SALMONELLA TYPHIMURIUM, Strain/Indicator: TA98, Metabolic Activation: HAMSTER, LIVER, S-9, AROCLOR 1254 (10%), Method: PREINCUBATION
[2] = Test System: AMES SALMONELLA TYPHIMURIUM, Strain/Indicator: TA98, Metabolic Activation: NONE, Method: PREINCUBATION
[3] = Test System: AMES SALMONELLA TYPHIMURIUM, Strain/Indicator: TA98, Metabolic Activation: RAT, LIVER, S-9, AROCLOR 1254 (10%), Method: PREINCUBATION
[4] = Test System: AMES SALMONELLA TYPHIMURIUM, Strain/Indicator: TA100, Metabolic Activation: HAMSTER, LIVER, S-9, AROCLOR 1254 (10%), Method: PREINCUBATION
[5] = Test System: AMES SALMONELLA TYPHIMURIUM, Strain/Indicator: TA100, Metabolic Activation: NONE, Method: PREINCUBATION
[6] = Test System: AMES SALMONELLA TYPHIMURIUM, Strain/Indicator: TA100, Metabolic Activation: RAT, LIVER, S-9, AROCLOR 1254 (10%), Method: PREINCUBATION
[7] = Test System: AMES SALMONELLA TYPHIMURIUM, Strain/Indicator: TA1535, Metabolic Activation: HAMSTER, LIVER, S-9, AROCLOR 1254 (10%), Method: PREINCUBATION
[8] = Test System: AMES SALMONELLA TYPHIMURIUM, Strain/Indicator: TA1535, Metabolic Activation: NONE, Method: PREINCUBATION
[9] = Test System: AMES SALMONELLA TYPHIMURIUM, Strain/Indicator: TA1535, Metabolic Activation: RAT, LIVER, S-9, AROCLOR 1254 (10%), Method: PREINCUBATION
[10] = Test System: AMES SALMONELLA TYPHIMURIUM, Strain/Indicator: TA1537, Metabolic Activation: HAMSTER, LIVER, S-9, AROCLOR 1254 (10%), Method: PREINCUBATION
[11] = Test System: AMES SALMONELLA TYPHIMURIUM, Strain/Indicator: TA1537, Metabolic Activation: NONE, Method: PREINCUBATION
[12] = Test System: AMES SALMONELLA TYPHIMURIUM, Strain/Indicator: TA1537, Metabolic Activation: RAT, LIVER, S-9, AROCLOR 1254 (10%), Method: PREINCUBATION
[13] = Test System: AMES SALMONELLA TYPHIMURIUM, Strain/Indicator: TA98, Metabolic Activation: NONE, Method: STANDARD PLATE
[14] = Test System: AMES SALMONELLA TYPHIMURIUM, Strain/Indicator: TA100, Metabolic Activation: NONE, Method: STANDARD PLATE
[15] = Test System: AMES SALMONELLA TYPHIMURIUM, Strain/Indicator: TA1535, Metabolic Activation: NONE, Method: STANDARD PLATE
[16] = Test System: AMES SALMONELLA TYPHIMURIUM, Strain/Indicator: TA1538, Metabolic Activation: NONE, Method: STANDARD PLATE

Row | SMILES | mutagenic call [1] | mutagenic call [2] | mutagenic call [3] | mutagenic call [4] | mutagenic call [5] | mutagenic call [6] | mutagenic call [7] | mutagenic call [8] | mutagenic call [9] | mutagenic call [10] | mutagenic call [11] | mutagenic call [12] | mutagenic call [13] | mutagenic call [14] | mutagenic call [15] | mutagenic call [16] | further results
1 | CCCCC(CC)COC(=O)CCCCCCCCC(=O)OCC(CC)CCCC (stereo unspecified) | inactive; negative | inactive; negative | inactive; negative | inactive; negative | inactive; negative | inactive; negative | inactive; negative | inactive; negative | inactive; negative | inactive; negative | inactive; negative | inactive; negative |  |  |  |  | mutagenic call (Test System: Ames Salmonella typhimurium, Strain/Indicator: TA98, Metabolic Activation: None, Method: Preincubation): inactive; negative; mutagenic call (Test System: Ames Salmonella typhimurium, Strain/Indicator: TA98, Metabolic Activation: Rat, Liver, S9, Phenobarbital and 5,6-benzoflavone, Method: Preincubation): inactive; negative; mutagenic call (Test System: Ames Salmonella typhimurium, Strain/Indicator: TA100, Metabolic Activation: None, Method: Preincubation): inactive; negative; mutagenic call (Test System: Ames Salmonella typhimurium, Strain/Indicator: TA100, Metabolic Activation: Rat, Liver, S9, Phenobarbital and 5,6-benzoflavone, Method: Preincubation): inactive; negative; mutagenic call (Test System: Ames Salmonella typhimurium, Strain/Indicator: TA1535, Metabolic Activation: None, Method: Preincubation): inactive; negative; mutagenic call (Test System: Ames Salmonella typhimurium, Strain/Indicator: TA1535, Metabolic Activation: Rat, Liver, S9, Phenobarbital and 5,6-benzoflavone, Method: Preincubation): inactive; negative; mutagenic call (Test System: Ames Salmonella typhimurium, Strain/Indicator: TA1537, Metabolic Activation: None, Method: Preincubation): inactive; negative; mutagenic call (Test System: Ames Salmonella typhimurium, Strain/Indicator: TA1537, Metabolic Activation: Rat, Liver, S9, Phenobarbital and 5,6-benzoflavone, Method: Preincubation): inactive; negative; mutagenic call (Test System: E. coli, Strain/Indicator: WP2uvrA/pKM101, Metabolic Activation: None, Method: Preincubation): inactive; negative; mutagenic call (Test System: E. coli, Strain/Indicator: WP2uvrA/pKM101, Metabolic Activation: Rat, Liver, S9, Phenobarbital and 5,6-benzoflavone, Method: Preincubation): inactive; negative
2 | CCCCC/C=C/C(=O)CCc1ccc(O)c(OC)c1 |  |  |  |  |  |  |  |  |  |  |  |  | inactive; negative | inactive; negative | inactive; negative | inactive; negative | mutagenic call (Test System: AMES SALMONELLA TYPHIMURIUM, Strain/Indicator: TA98, Metabolic Activation: RAT, LIVER, S-9, AROCLOR 1254, Method: STANDARD PLATE): inactive; negative; mutagenic call (Test System: AMES SALMONELLA TYPHIMURIUM, Strain/Indicator: TA100, Metabolic Activation: RAT, LIVER, S-9, AROCLOR 1254, Method: STANDARD PLATE): active; positive; mutagenic call (Test System: AMES SALMONELLA TYPHIMURIUM, Strain/Indicator: TA1535, Metabolic Activation: RAT, LIVER, S-9, AROCLOR 1254, Method: STANDARD PLATE): active; positive; mutagenic call (Test System: AMES SALMONELLA TYPHIMURIUM, Strain/Indicator: TA1538, Metabolic Activation: RAT, LIVER, S-9, AROCLOR 1254, Method: STANDARD PLATE): inactive; negative
3 | NCCCNCCCN | inactive; negative | inactive; negative | inactive; negative | inactive; negative | inactive; negative | inactive; negative | inactive; negative | inactive; negative | inactive; negative | inactive; negative | inactive; negative | inactive; negative |  |  |  |  | mutagenic call (Test System: AMES SALMONELLA TYPHIMURIUM, Strain/Indicator: TA98, Metabolic Activation: RAT, LIVER, S-9, PCB, Method: PREINCUBATION): inactive; negative; mutagenic call (Test System: AMES SALMONELLA TYPHIMURIUM, Strain/Indicator: TA100, Metabolic Activation: RAT, LIVER, S-9, PCB, Method: PREINCUBATION): inactive; negative
4 | CSc1nc2cc(Oc3cccc(Cl)c3Cl)c(Cl)cc2[nH]1 |  |  |  |  |  |  |  |  |  |  |  |  |  |  |  |  | mutagenic call (End Point: IN VITRO CHROMOSOMAL ABERRATIONS, Test System: RIVER BUFFALO LYMPHOCYTES, Metabolic Activation: NONE): active; positive (structural and ploidy changes); mutagenic call (End Point: IN VITRO MICRONUCLEUS, Test System: RIVER BUFFALO LYMPHOCYTES, Metabolic Activation: NONE): active; positive
5 | CNC(=O)/C=C(\C)OP(=O)(OC)OC |  |  |  |  |  |  |  |  |  |  |  |  | inactive; negative | inactive; negative |  |  | mutagenic call (End Point: In vitro chromosomal aberrations, Test System: Human lymphocytes, Metabolic Activation: None): active; positive (structural changes and ploidy); mutagenic call (Test System: AMES SALMONELLA TYPHIMURIUM, Strain/Indicator: TA97A, Metabolic Activation: NONE, Method: STANDARD PLATE): inactive; negative; mutagenic call (Test System: AMES SALMONELLA TYPHIMURIUM, Strain/Indicator: TA97A, Metabolic Activation: PLANT, HOMOGENATE, S-14, Method: STANDARD PLATE): inactive; negative; mutagenic call (Test System: AMES SALMONELLA TYPHIMURIUM, Strain/Indicator: TA97A, Metabolic Activation: S-9, Method: STANDARD PLATE): inactive; negative; mutagenic call (Test System: AMES SALMONELLA TYPHIMURIUM, Strain/Indicator: TA98, Metabolic Activation: PLANT, HOMOGENATE, S-14, Method: STANDARD PLATE): inactive; negative; mutagenic call (Test System: AMES SALMONELLA TYPHIMURIUM, Strain/Indicator: TA98, Metabolic Activation: S-9, Method: STANDARD PLATE): inactive; negative; mutagenic call (Test System: AMES SALMONELLA TYPHIMURIUM, Strain/Indicator: TA100, Metabolic Activation: PLANT, HOMOGENATE, S-14, Method: STANDARD PLATE): inactive; negative; mutagenic call (Test System: AMES SALMONELLA TYPHIMURIUM, Strain/Indicator: TA100, Metabolic Activation: S-9, Method: STANDARD PLATE): inactive; negative; mutagenic call (Test System: AMES SALMONELLA TYPHIMURIUM, Strain/Indicator: TA1535, Metabolic Activation: PLANT, HOMOGENATE, S-14, Method: STANDARD PLATE): inactive; negative; mutagenic call (Test System: AMES SALMONELLA TYPHIMURIUM, Strain/Indicator: TA1535, Metabolic Activation: S-9, Method: STANDARD PLATE): inactive; negative; mutagenic call (Test System: UDS HUMAN FIBROBLASTS, Strain/Indicator: THY INCORP (NON-S-PHASE), Metabolic Activation: NONE, Method: LIQUID SCINTILLATION COUNTING): active; positive
6 | CS(=O)CCC(=O)N1[C@@H](c2ccccc2O)SC[C@H]1C(=O)O (stereo partly specified) |  |  |  |  |  |  |  |  |  |  |  |  | inactive; negative | inactive; negative | inactive; negative | inactive; negative | mutagenic call (Test System: AMES SALMONELLA TYPHIMURIUM, Strain/Indicator: TA1537, Metabolic Activation: NONE, Method: STANDARD PLATE): inactive; negative; mutagenic call (Test System: E. COLI, Strain/Indicator: WP2, Metabolic Activation: NONE, Method: STANDARD PLATE): inactive; negative; mutagenic call (Test System: E. COLI, Strain/Indicator: WP2 UVRA, Metabolic Activation: NONE, Method: STANDARD PLATE): inactive; negative

Source: PubChem BioAssay AID1259407 (Chemical Carcinogenesis Research Information System (CCRIS), 2018)
